Consider nine compounds from patent US9073920B2, “Substituted dibenzonaphthyridines, pharmaceutical uses thereof and processes therfor” (Purdue Research Foundation, priority 2010, dated 2015).

The target in data set [1] is T1, Human recombinant Top1 (Homo sapiens, UniProt P11387).
T1 construct: made in house
T1 sequence (P11387 1-765): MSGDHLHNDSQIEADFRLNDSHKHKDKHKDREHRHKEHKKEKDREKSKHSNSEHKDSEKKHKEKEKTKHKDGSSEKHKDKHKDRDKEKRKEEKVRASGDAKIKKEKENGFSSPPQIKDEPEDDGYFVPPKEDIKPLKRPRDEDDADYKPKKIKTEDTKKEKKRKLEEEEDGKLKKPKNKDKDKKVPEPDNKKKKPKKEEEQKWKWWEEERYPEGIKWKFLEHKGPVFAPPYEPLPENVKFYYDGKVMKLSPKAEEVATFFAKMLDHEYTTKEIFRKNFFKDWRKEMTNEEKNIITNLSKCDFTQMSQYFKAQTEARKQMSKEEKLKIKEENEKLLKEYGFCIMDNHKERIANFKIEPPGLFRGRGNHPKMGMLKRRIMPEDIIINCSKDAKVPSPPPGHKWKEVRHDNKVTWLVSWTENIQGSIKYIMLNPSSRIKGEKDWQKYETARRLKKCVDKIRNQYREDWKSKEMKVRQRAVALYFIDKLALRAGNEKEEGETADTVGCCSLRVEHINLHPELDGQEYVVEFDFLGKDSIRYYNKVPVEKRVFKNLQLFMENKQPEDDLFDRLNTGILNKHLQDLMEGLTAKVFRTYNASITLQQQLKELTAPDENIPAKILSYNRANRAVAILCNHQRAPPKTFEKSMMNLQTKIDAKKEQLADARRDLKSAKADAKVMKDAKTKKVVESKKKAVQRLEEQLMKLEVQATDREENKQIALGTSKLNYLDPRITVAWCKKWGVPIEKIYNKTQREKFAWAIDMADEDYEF
Description: Topoisomerase I-mediated DNA cleavage reactions. To be noted: for Top1 inhibitory activity in Top1-mediated DNA cleavage assay: semi-quantitative scale from 0 to ++++, relative to CPT at 1 μM; for activity of the compounds to produce Top1-mediated DNA cleavage: semiquantitative, tested at 0.1 μM, 1 μM, 10 μM, 100 μM, relative to 1 μM camptothecin. Further details: key to activity of the compounds to produce Top1-mediated DNA cleavage: +: weak activity; ++ and +++: moderate activity; ++ and +++: moderate activity; ++++: similar activity as 1 μM camptothecin. It is filed as biochemical. As to the method:
Topoisomerase I-Mediated DNA Cleavage Reactions. Human recombinant Top1 was purified from Baculovirus as described previously.^34 The 161 bp fragment from pBluescript SK(−) phagemid DNA (Stratagene, La Jolla, Calif.) was cleaved with the restriction endonucleases PvuII and HindIII (New England Biolabs, Beverly, Mass.) supplied in NE buffer 2 (50 μL reactions) for 1 h at 37° C., and separated by electrophoresis in a 1% agarose gel made in 1×TBE buffer. The 161 bp fragment was eluted from the gel slice using the QIAEX II kit (QIAGEN Inc., Valencia, Calif.). Approximately 200 ng of the fragment was 3′-end labeled at the HindIII site by fill-in reaction with [alpha-^32P]-dGTP and 0.5 mM dATP, dCTP, and dTTP, in React 2 buffer (50 mM Tris-HCl, pH 8.0, […], 50 mM NaCl) with 0.5 unit of DNA polymerase I (Klenow fragment). Unincorporated ^32P-dGTP was removed using mini Quick Spin DNA columns (Roche, Indianapolis, Ind.), and the eluate containing the 3′-end-labeled 161 bp fragment was collected. Aliquots (approximately 50,000 dpm/reaction) were incubated with topoisomerase I at 22° C. for 30 min in the presence of the tested drug. Reactions were terminated by adding SDS (0.5% final concentration). The samples (10 μL) were mixed with 30 μL of loading buffer (80% formamide, 10 mM sodium hydroxide, 1 mM sodium EDTA, 0.1% xylene cyanol, and 0.1% bromophenol blue, pH 8.0). Aliquots were separated in denaturing gels (16% polyacrylamine, 7 M urea). Gels were dried and visualized by using a Phosphoimager and ImageQuant software (Molecular Dynamics, Sunnyvale, Calif.). Each gel included a sample of DNA alone, DNA with only the drug, and DNA with Top I without the drug. The compounds described herein were tested at concentrations of 0.1 μM, 1 μM, 10 μM, 100 μM. The activity of the compounds to produce Top1-mediated DNA cleavage is expressed semiquantitatively as follows: +: weak activity; ++ and +++: moderate activity; ++++: similar activity as 1 μM camptothecin. Results: 33, 0; 34, 0; 32, ++; 31, +++; 30, +; 29, +; 28, 0; and 19, 0.
Biological Results.All of the target compounds were tested for induction of DNA damage in Top1-mediated DNA cleavage assays. The results of this assay are designated relative to the Top1 inhibitory activity of CPT and expressed in semi-quantitative fashion on the scale from 0, no detectable activity, to ++++, similar activity to that of compound 1 at a concentration of 1 μM. […] Compounds 29 and 30, containing an N-(3-morpholinylpropyl) or an N-(3-imidazolylpropyl), respectively were Top1 inhibitors, but only at the lower + level. Without being bound by theory, it is believed that the loss of Top1 inhibitory activity with expansion of the five-membered indenone ring of the indenoisoquinoline to the six-membered ring of compounds described herein might result from the decreased overall solubility, especially for 14, 19, and 28, rather than differences in intercalation between DNA base pairs at the Top1 cleavage site. With 29 and 30, incorporation of amines increased water solubility and affinity toward DNA, possibly due to attraction of their positively charged protonated amines with the phosphates of the DNA backbone.

Data set [2] in a line: Solubility in organic solvents. To be noted: relative to their precursors 14 and 29. It is filed as physicochemical.
The test system of data set [3] is OVCAR-3. Description: NCI screen antiproliferative activity, ovarian OVCAR-3. It is filed as cell-based. The conditions noted are these: Homo sapiens, concentration for 50% growth inhibition. On the procedure: (§1) The antipoliferative activity of each compound was tested against 55 different human cancer cell lines in the National Cancer Institute screen.^32, 33 The chlorodibenzonaphthyridinone 32 bearing a morpholinopropyl chain on the lactam nitrogen was cytotoxic to human cancer cells at low micromolar concentrations. The cytotoxicities of 32 in selected cell lines are presented in Table 1, along with the mean graph midpoint value of 5.6 μM. In general, cytotoxicity GI50 values appeared to be in the low micromolar range, although 32 was particularly cytotoxic in the leukemia K-562 and RPMI-8226 cell lines, the ovarian IGROV1 cancer cell line, the renal UO-31 cancer cell line, and the breast MCF7 cancer cell line.

For data set [4], the system named is COLO 205. As to the kind of experiment: NCI screen antiproliferative activity, colon COLO 205. It is filed as cell-based. The conditions noted are these: Homo sapiens, concentration for 50% growth inhibition. On the procedure:
as §1

Data set [5] concerns RPMI-8226. Description: NCI screen antiproliferative activity, leukemia RPMI-8226. To be noted: Homo sapiens, concentration for 50% growth inhibition. It is filed as cell-based. As to the method: as §1
The subject of data set [6] is all human cancer cell lines successfully tested. Description: NCI screen mean graph midpoint for growth inhibition. It is filed as cell-based. The conditions noted are these: mean over all human cancer cell lines successfully tested. On the procedure: as §1
For data set [7], the system named is SF-539. As to the kind of experiment: NCI screen antiproliferative activity, CNS SF-539. It is filed as cell-based. The conditions noted are these: Homo sapiens, concentration for 50% growth inhibition. On the procedure:
as §1

Data set [8] deals with DU-145. Description: NCI screen antiproliferative activity, prostate DU-145. It is filed as cell-based. To be noted: Homo sapiens, concentration for 50% growth inhibition. As to the method: as §1
For data set [9], the system named is MCF7. Description: NCI screen antiproliferative activity, breast MCF7. To be noted: Homo sapiens, concentration for 50% growth inhibition. It is filed as cell-based. As to the method:
as §1

Data set [10] has as its system IGROV1. Description: NCI screen antiproliferative activity, ovarian IGROV1. It is filed as cell-based. The conditions noted are these: Homo sapiens, IGROV-1, concentration for 50% growth inhibition. On the procedure:
as §1

For data set [11], the system named is UO-31. As to the kind of experiment: NCI screen antiproliferative activity, renal UO-31. It is filed as cell-based. To be noted: Homo sapiens, concentration for 50% growth inhibition. On the procedure:
as §1

In data set [12] the test system is SN12C. Description: NCI screen antiproliferative activity, renal SN12C. It is filed as cell-based. To be noted: Homo sapiens, concentration for 50% growth inhibition. As to the method: as §1
Data set [13] deals with HCT-116. As to the kind of experiment: NCI screen antiproliferative activity, colon HCT-116. It is filed as cell-based. To be noted: Homo sapiens, concentration for 50% growth inhibition. On the procedure:
as §1

Data set [14] relates to HOP-62. Description: NCI screen antiproliferative activity, lung HOP-62. It is filed as cell-based. To be noted: Homo sapiens, concentration for 50% growth inhibition. On the procedure:
as §1

The test system of data set [15] is K-562. Description: NCI screen antiproliferative activity, leukemia K-562. It is filed as cell-based. The conditions noted are these: Homo sapiens, K562, concentration for 50% growth inhibition. On the procedure: as §1
Data set [16] relates to UACC-62. Description: NCI screen antiproliferative activity, melanoma UACC-62. The conditions noted are these: Homo sapiens, concentration for 50% growth inhibition. It is filed as cell-based. On the procedure:
as §1

Setting [17] is: Top1-mediated DNA fragmentation pattern, compared with indenoisoquinolines.

“And” between values parts separate entries of the source, which are not always exact repeats. Equal entries are not always repeated.

In the case of `COc1cc2c(=O)n(C)c3c4ccccc4[nH]c(=O)c3c2cc1OC` [Compound 14, 8,9-Dimethoxy-5-methyldibenzo[c,h][1,6]naphthyridine-6,11(5H,12H)-dione], the “Top1 inhibitory activity in Top1-mediated DNA cleavage assay” value (“Top1 inhibitory activity” for short) in data set [1] is “no detectable inhibition and 0”.

Turning to `C=CCn1c(=O)c2cc(OC)c(OC)cc2c2c(=O)[nH]c3ccccc3c21` [Compound 19, 5-Allyl-8,9-dimethoxydibenzo[c,h][1,6]naphthyridine-6,11(5H,12H)-dione], in data set [1], the “Top1 inhibitory activity” value is listed as “no detectable inhibition” and the “activity of the compounds to produce Top1-mediated DNA cleavage” value (shortened to “activity of the compounds”) is recorded as 0.

Take `COc1cc2c(=O)n(CCCO)c3c4ccccc4[nH]c(=O)c3c2cc1OC` [Compound 28, 5-(3-Hydroxypropyl)-8,9-dimethoxydibenzo[c,h][1,6]naphthyridine-6,11(5H,12H)-dione]: in [1], the “Top1 inhibitory activity” value is reported as “no detectable inhibition” and the “activity of the compounds” value worked out at 0.

Turning to `COc1cc2c(=O)n(CCCN3CCOCC3)c3c4ccccc4[nH]c(=O)c3c2cc1OC` [Compound 29, 8,9-Dimethoxy-5-(3-morpholinopropyl)dibenzo[c,h][1,6]naphthyridine-6,11(5H,12H)-dione], the “activity of the compounds” value in [1] is “+”.

On to `COc1cc2c(=O)n(CCCn3ccnc3)c3c4ccccc4[nH]c(=O)c3c2cc1OC` [Compound 30, 5-(3-(1H-Imidazol-1-yl)propyl)-8,9-dimethoxydibenzo[c,h][1,6]-naphthyridine-6,11(5H,12H)dione], for which the “activity of the compounds” value in data set [1] is “+”.

With `COc1cc2c(=O)n(C)c3c4ccccc4nc(Cl)c3c2cc1OC` [Compound 31, 11-Chloro-8,9-dimethoxy-5-methyldibenzo[c,h][1,6]naphthyridin-6(5H)-one], the “solubilities in solvents like DMSO, methanol and chloroform” value in [2] is “increased substantially”. Further, in data set [1] (setting [17]), the “cleavage band intensity at base pair 97” value is reported as “more intense”; the “cleavage band intensity at base pairs 44 and 68” value is given as “weak”. The “activity of the compounds” value in data set [1] is on record as “+++”.

For the compound `COc1cc2c(=O)n(CCCN3CCOCC3)c3c4ccccc4nc(Cl)c3c2cc1OC` [Compound 32, 11-Chloro-8,9-dimethoxy-5-(3-morpholinopropyl)dibenzo[c,h][1,6]-naphthyridin-6(5H)-one], the melting point is 185 to 190 °C (dec.). This compound had a GI50 in [3] of 6.3 µM. Also, it took 0.33 µM to inhibit growth in data set [4] by half (GI50). For the same compound, in data set [5], the GI50 was 0.1 µM. In addition, the “solubilities in solvents like DMSO, methanol and chloroform” value in data set [2] is recorded as “increased substantially”. In data set [6], the MGM (mean GI50 across cell lines) amounted to 5.6 µM. This compound also gave a GI50 in [7] of 12.3 µM. Further, in data set [8], the GI50 came out at 10.5 µM. In [9], this compound had a GI50 of 0.4 µM. The same compound displayed a GI50 in data set [10] of 0.03 µM. Moreover, in data set [11], halving of growth (GI50) required 0.02 µM. The GI50 in [12] amounted to 13.2 µM. Also, in [13], it took 4.16 µM to inhibit growth by half (GI50). The compound also gave a GI50 in [14] of 4.7 µM. This compound came in with a GI50 in data set [15] of 0.2 µM. In data set [16], this compound registered a GI50 of 6.8 µM. Besides, the “DNA cleavage sites with significant band intensity” value in [1] (Top1-mediated DNA fragmentation pattern) was “only bands for cleavages at the 97 and 119 sites are intense enough to be significant”. Further, in [1], the “activity of the compounds” value was “++”.

As to `COc1cc2c(Cl)nc3c4ccccc4nc(Cl)c3c2cc1OC` [Compound 33, 6,11-Dichloro-8,9-dimethoxydibenzo[c,h][1,6]naphthyridine], in data set [1], the “Top1 inhibitory activity” value is on record as “loss of activity” and the “activity of the compounds” value worked out at 0.

Take `COc1cc2c(OC)nc3c4ccccc4nc(OC)c3c2cc1OC` [Compound 34, 6,8,9,11-Tetramethoxydibenzo[c,h][1,6]naphthyridine]: in data set [1], the “Top1 inhibitory activity” value was “loss of activity” and the “activity of the compounds” value amounted to 0.
